Key:
[1] = tested on: EGFP-FKBP-LC8TRAP transfected COS1 cells; test: Reversibility of endosome dispersion after UV induction; format: cell-based; conditions: for Percentage of endosomes dispersion (recovery): UV 10 min
Protocol: (§1) Cell Culture. COS1 cells were cultured in DMEM (CELLGRO®) supplemented with 10% fetal bovine/calf serum (Omega Scientific). Transfection was performed in 80-90% confluent 24-h cultures of COS1 cells using LIPOFECTAMINE™ 2000 (Invitrogen) and OPTI-MEM™ media (GIBCO®) according to the manufacturer's recommendations. Various concentrations (0 nM to 1000 nM) of AP (Ariad Pharmaceuticals Inc.) and PhAP (as described herein) were added to each experimental wells 24 hr. post transfection and incubated for different periods of time before analyzing the cells. For reversibility of endosome dispersion studies, 500 nM of AP/PhAP were used. In each case, the cells were washed well with PBS and supplemented with fresh media before inducing with UV light (10 mins., 4 W, 350 nm) and allowed to recover for various time period at 37° C., before analysis.
(§2) Immunostaining and Microscopy. For immunostaining, transiently transfected COS1 cells were fixed with 3.7% formaldehyde at room temperature for 10 min, and subsequent immunostaining was performed as described previously^[2]. Briefly, COS 1 cells grown on 25-mm coverslips were washed 3× with PBS, treated with 3.7% formaldehyde (Sigma) in PBS for fixation, and permeabilized in 0.5% Triton X-100 (Sigma) in PBS at room temperature for 10 min. Cells were then incubated with blocking buffer containing 4% skimmed milk (fat free) and 0.5% Triton X-100 in PBS. Anti-EEA1 monoclonal antibody was added to label early endosome marker protein at a dilution of 1:100 in the same buffer for 30 min at RT, and the coverslips were washed and incubated with rhodamine-conjugated donkey anti-mouse secondary antibody (1:100). After washing, the coverslips were mounted on slides to visualize the trapping effects. Samples were viewed using an Olympus IX81 automated inverted microscope equipped with water immersion 60× objective. The level of dispersion was quantified by counting 100 cells per coverslip. Each experiment was performed in triplicate. Images were obtained using a Spot RT Slider high-resolution cooled CCD camera equipped to IX81 microscope and Image-Pro software. Images were cropped and processed using Adobe Photoshop 7.0 (Adobe Systems).
UV induction. For UV-induction and recovery of endosome studies, cells were washed with PBS and fresh media were added after drug treatment. The washed cells were then treated with a hand held UV-lamp (365 nm/4 watt) for 10 mins. The cells were then left to recover at 37° C. for varying period of time before staining and analysis.
Next, we characterized the reversibility of endosome dispersion in COS1 cells UV-induced cleavage of PhAP. In these experiments, transiently transfected cells were incubated with PhAP (500 nM) or AP for times ranging from 0-2 h, after which cells were washed rapidly, replenished with fresh media, and then exposed to UV light (10 min, 4 W, 350 nm). The cells were then fixed at 0, 1, 2, 4, and 8 h post UV radiation and the endosomes imaged using fluorescence microscopy at 60× magnification. We observed a gradual recovery of endosomes to the perinuclear region during the first 4 h after UV exposure (44.1±2.3%), with a slight increase in dispersion after 8 h (48.9±3.9%), for cells treated with PhAP (FIG. 3A).

LC8-LC8TRAP complex = test: UV light (350 nm) disruption of dimerizer-LC8-LC8TRAP complex, native PAGE; format: biochemical; conditions: UV 350 nm
Protocol: Native PAGE. Each of, LC8 and FKBP-LC8TRAP, were mixed in a molar concentration of 50 μM and 1.2 molar excess (60 μM) of AP20187 or 2.4 molar excess (120 μM) of PhAP20187. The mix were incubated at 4° C. for 5 min. Native PAGE analysis was performed at 16° C. using 8-25% gradient gels on the PHASTSYSTEM™ (GE Biosciences).
Next, we characterized how well UV light could disrupt the PhAP-LC8-LC8TRAP complex in vitro. We generated the PhAP-LC8-LC8TRAP and AP-LC8-LC8TRAP complexes and exposed each to UV light (350 nm). Native PAGE indicated loss of the band corresponding to the PhAP-LC8-LC8TRAP complex and an increase in intensity of bands corresponding to the individual components after UV induction. The band corresponding to the PhAP-LC8-LC8TRAP complex was less intense in samples that received a five min exposure to UV light and undetectable after a 10 min exposure. On the other hand, the LC8-LC8TRAP complex induced by the non-photocleavable AP persisted, even after a 30 min exposure to UV light (FIG. 2C).

[2] = tested on: EGFP-FKBP-LC8TRAP transfected COS1 cells; test: Endosome dispersion (EEA1 staining) in trap-transfected cells; format: cell-based; conditions: for time of drug treatment after which maximum dispersion was reached: unchanged with further increase in time; for maximum number of cells with dispersed endosomes: 2 h, dimerizer concentrations greater than 500 nM; for drug concentration at which maximum dispersion is seen: 2 hrs treatment, unchanged with further increase in concentration
Protocol: as §1, §2
To determine if these biochemical results had relevance in cells, we investigated if photocleavage of PhAP could reverse the endosome dispersion phenotype induced by LC8TRAP and AP. First, we established that PhAP behaved in a similar intracellular manner as AP. To this end, we used a green fluorescent protein (GPF) analog of the trap, EGFP-FKBP-LC8TRAP to identify cells that expressed the trap. COS1 cells were transiently transfected with EGFP-FKBP-LC8TRAP for 24 h, after which they were treated with PhAP or AP (0 nM-1000 nM) for 2 h. Cells were then fixed and stained with an early endosome marker 1 (EEA1). The number of cells with dispersed endosomes after treatment with PhAP or AP was indistinguishable. The maximum number of cells with dispersed endosomes (67.5±7.0% for PhAP and 64.1±7.6% for non-photocleavable AP), was obtained at dimerizer concentrations greater than 500 nM. The rate of dispersion was also similar using either dimerizing agent, and no changes were observed past 2 hours. The values obtained for both AP and PhAP are also in agreement with our previous studies. See e.g., Varma et al., 2010 (Id.)

[3] = 30 mins. treatment (500 nM), recovery 0 h
[4] = 30 mins. treatment (500 nM), recovery 1 h
[5] = 30 mins. treatment (500 nM), recovery 2 h
[6] = 30 mins. treatment (500 nM), recovery 4 h
[7] = 30 mins. treatment (500 nM), recovery 8 h
[8] = 1 hr. treatment (500 nM), recovery 0 h
[9] = 1 hr. treatment (500 nM), recovery 1 h
[10] = 1 hr. treatment (500 nM), recovery 2 h
[11] = 1 hr. treatment (500 nM), recovery 4 h
[12] = 1 hr. treatment (500 nM), recovery 8 h
[13] = 2 hr. treatment (500 nM), recovery 0 h
[14] = 2 hr. treatment (500 nM), recovery 1 h
[15] = 2 hr. treatment (500 nM), recovery 2 h
[16] = 2 hr. treatment (500 nM), recovery 4 h
[17] = 2 hr. treatment (500 nM), recovery 8 h
[18] = 500 nM, time 0.167 Hr (10 min.)

| Structure (SMILES) | Percentage of endosomes dispersion (recovery) [1, 3] [%] | Percentage of endosomes dispersion (recovery) [1, 4] [%] | Percentage of endosomes dispersion (recovery) [1, 5] [%] | Percentage of endosomes dispersion (recovery) [1, 6] [%] | Percentage of endosomes dispersion (recovery) [1, 7] [%] | Percentage of endosomes dispersion (recovery) [1, 8] [%] | Percentage of endosomes dispersion (recovery) [1, 9] [%] | Percentage of endosomes dispersion (recovery) [1, 10] [%] | Percentage of endosomes dispersion (recovery) [1, 11] [%] | Percentage of endosomes dispersion (recovery) [1, 12] [%] | Percentage of endosomes dispersion (recovery) [1, 13] [%] | Percentage of endosomes dispersion (recovery) [1, 14] [%] | Percentage of endosomes dispersion (recovery) [1, 15] [%] | Percentage of endosomes dispersion (recovery) [1, 16] [%] | Percentage of endosomes dispersion (recovery) [1, 17] [%] | Percentage of endosomes dispersion ([2]; 10 nM, 2 hr. of treatment) [%] | Percentage of endosomes dispersion ([2]; 20 nM, 2 hr. of treatment) [%] | Percentage of endosomes dispersion ([2]; 100 nM, 2 hr. of treatment) [%] | Percentage of endosomes dispersion ([2]; 500 nM, 2 hr. of treatment) [%] | Percentage of endosomes dispersion ([2]; 500 nM, time 0 Hr) | also measured |
| --- | --- | --- | --- | --- | --- | --- | --- | --- | --- | --- | --- | --- | --- | --- | --- | --- | --- | --- | --- | --- | --- |
| CCC(C(=O)N1CCCCC1C(=O)OC(CCc1ccc(OC)c(OC)c1)c1cccc(OCC(=O)NCC(CNC(=O)COc2cccc(C(CCc3ccc(OC)c(OC)c3)OC(=O)C3CCCCN3C(=O)C(CC)c3cc(OC)c(OC)c(OC)c3)c2)CN(C)C)c1)c1cc(OC)c(OC)c(OC)c1 (stereo not shown) [AP, AP20187] | 51.8 ± 4.4 | 64.7 ± 2.0 | 68.3 ± 3.7 | 69.8 ± 4.3 | 67.9 ± 1.9 | 58.0 ± 4.3 | 71.2 ± 2.5 | 69.7 ± 3.6 | 70.4 ± 3.1 | 70.8 ± 1.9 | 69.1 ± 3.2 | 68.9 ± 3.2 | 70.7 ± 4.0 | 69.5 ± 1.9 | 70.3 ± 3.3 | 44.4 ± 2.4 | 53.0 ± 3.5 | 56.2 ± 1.6 | 64.1 ± 7.6 | 30.2 ± 2.8% | endosome dispersion after UV exposure, all time points ([1]; 0-8 h post UV, with or without UV exposure): remained dispersed at all time points evaluated; saturation point of endosome dispersion ([1]; 30 minutes or 1 hr treatment followed by UV exposure): ~70%; band of dimerizer-LC8-LC8TRAP complex after UV exposure (LC8-LC8TRAP complex; 30 min exposure): persisted; Percentage of endosomes dispersion [2, 18]: 45.0 ± 2.6%; Percentage of endosomes dispersion ([2]; 500 nM, time 0.5 Hr): 53.6 ± 6.5%; Percentage of endosomes dispersion ([2]; 500 nM, time 1 Hr): 53.8 ± 2.9%; Percentage of endosomes dispersion ([2]; 500 nM, time 2 Hr): 69.8 ± 4.3%; Percentage of endosomes dispersion ([2]; 500 nM, time 4 Hr): 70.9 ± 2.1%; time of drug treatment after which maximum dispersion was reached ([2]; 500 nM): 2 h; Percentage of endosomes dispersion ([2]; 1000 nM, 2 hr. of treatment): 66.4 ± 2.5%; maximum number of cells with dispersed endosomes [2]: 64.1±7.6%; drug concentration at which maximum dispersion is seen [2]: 500 nM |
| CC[C@H](C(=O)N1CCCC[C@H]1C(=O)O[C@H](CCc1ccc(OC)c(OC)c1)c1cccc(OCC(=O)OC(C)c2ccc(C(C)OC(=O)COc3cccc([C@@H](CCc4ccc(OC)c(OC)c4)OC(=O)[C@@H]4CCCCN4C(=O)[C@@H](CC)c4cc(OC)c(OC)c(OC)c4)c3)c([N+](=O)[O-])c2)c1)c1cc(OC)c(OC)c(OC)c1 (stereo partly shown) [PhAP] | 53.2±2.4 | 53.7 ± 4.0 | 50.8 ± 2.3 | 48.0 ± 0.5 | 49.3 ± 6.7 | 57.8±8.0 | 56.4 ± 1.7 | 55.7 ± 8.8 | 46.7 ± 0.6 | 48.1 ± 2.0 | 69.5 ± 2.4 | 66.3 ± 3.2 | 57.6 ± 2.6 | 44.1±2.3 | 48.9±3.9 | 47.9 ± 8.1 | 48.0 ± 5.0 | 57.5 ± 2.4 | 67.5 ± 7.0 | 29.0 ± .8% | band of dimerizer-LC8-LC8TRAP complex after UV exposure (LC8-LC8TRAP complex; 10 min exposure): undetectable; band of dimerizer-LC8-LC8TRAP complex after UV exposure (LC8-LC8TRAP complex; five min exposure): less intense; Percentage of endosomes dispersion ([2]; 50 nM, 2 hr. of treatment): 55.5 ± 1.3%; Percentage of endosomes dispersion [2, 18]: 47.2 ± 2.5%; Percentage of endosomes dispersion ([2]; 500 nM, time 0.5 Hr): 49.1 ± 3.3%; Percentage of endosomes dispersion ([2]; 500 nM, time 1 Hr): 57.2 ± 5.2%; Percentage of endosomes dispersion ([2]; 500 nM, time 2 Hr): 71.2 ± 2.0%; Percentage of endosomes dispersion ([2]; 500 nM, time 4 Hr): 69.0 ± 4.9%; time of drug treatment after which maximum dispersion was reached ([2]; 500 nM): 2 h; Percentage of endosomes dispersion ([2]; 1000 nM, 2 hr. of treatment): 67.7 ± 4.9%; maximum number of cells with dispersed endosomes [2]: 67.5±7.0%; drug concentration at which maximum dispersion is seen [2]: 500 nM |

Reference: patent publication US9260710B2, “Photocleavable linker” (City of Hope, priority 2012, dated 2016)
